Data as given in patent publication US9149038B2, “4-amino-6-(heterocyclic)picolinates and 6-amino-2-(heterocyclic)pyrimidine-4-carboxylates and their use as herbicides” (Dow AgroSciences LLC, priority 2013, dated 2015).
Read-outs that look alike come from different tables or passages of the source.

Tests used:
[1] = system: Key Broadleaf Weed and Crop Species; test: Post-Emergent Test II: postemergent herbicidal activity, visual rating after 14 d (Table 7); format: in vivo; conditions: post-emergence, 336 h; for pest or weed control at 35 g/ha: 35 g ai/ha; for pest or weed control at 70 g/ha: 70 g ai/ha; for pest or weed control at 140 g/ha: 140 g ai/ha
Method in brief: (§1)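 Track-sprayed young seedlings (first/second true leaf) at 187 L/ha across a 2-fold rate series from the high rate down to 1/16×. Kept in greenhouse at 23-29° C day, subirrigated. Injury rated by eye after 14 d, 0 = no injury, 100 = complete kill.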

[2] = system: Key Grass and Sedge Weeds as well as Grass Crops; test: Post-Emergent Test II: postemergent herbicidal activity, visual rating after 14 d (Table 8); format: in vivo; conditions: post-emergence, 336 h; for pest or weed control at 35 g/ha: 35 g ai/ha; for pest or weed control at 70 g/ha: 70 g ai/ha; for pest or weed control at 140 g/ha: 140 g ai/ha
Method in brief: as §1

[3] = lambsquarters (Chenopodium album), read-out: Visual Growth Reduction (%) 14 Days After Application CHEAL
[4] = oilseed rape, canola (Brassica napus), read-out: Visual Growth Reduction (%) 14 Days After Application BRSNN
[5] = redroot pigweed (Amaranthus retroflexus), read-out: Visual Growth Reduction (%) 14 Days After Application AMARE
[6] = sunflower (Helianthus annuus), read-out: Visual Growth Reduction (%) 14 Days After Application HELAN
[7] = velvetleaf (Abutilon theophrasti), read-out: Visual Growth Reduction (%) 14 Days After Application ABUTH
[8] = wild poinsettia (Euphorbia heterophylla), read-out: Visual Growth Reduction (%) 14 Days After Application EPHHL
[9] = barnyardgrass (Echinochloa crus-galli), read-out: Visual Growth Reduction (%) 14 Days After Application ECHCG
[10] = giant foxtail (Setaria faberi), read-out: Visual Growth Reduction (%) 14 Days After Application SETFA
[11] = maize, corn (Zea mays), read-out: Visual Growth Reduction (%) 14 Days After Application ZEAMX
[12] = rice (Oryza sativa), read-out: Visual Growth Reduction (%) 14 Days After Application ORYSA
[13] = wheat, spring (Triticum aestivum), read-out: Visual Growth Reduction (%) 14 Days After Application TRZAS
[14] = yellow nutsedge (Cyperus esculentus), read-out: Visual Growth Reduction (%) 14 Days After Application CYPES

COc1cc(-c2nc(C(=O)O)c(Cl)c(N)c2F)cc2c1OCO2 [Compound 15]
pest or weed control at 35 g/ha [1, 3]: 0 to 29%
pest or weed control at 70 g/ha [1, 3]: 45 to 59%
pest or weed control at 140 g/ha [1, 3]: 75 to 84%
pest or weed control at 35 g/ha [1, 4]: 0 to 29%
pest or weed control at 70 g/ha [1, 4]: 0 to 29%
pest or weed control at 140 g/ha [1, 4]: 0 to 29%
pest or weed control at 35 g/ha [1, 5]: 0 to 29%
pest or weed control at 70 g/ha [1, 5]: 0 to 29%
pest or weed control at 140 g/ha [1, 5]: 45 to 59%
pest or weed control at 35 g/ha [1, 6]: 0 to 29%
pest or weed control at 70 g/ha [1, 6]: 0 to 29%
pest or weed control at 140 g/ha [1, 6]: 0 to 29%
pest or weed control at 35 g/ha [1, 7]: 0 to 29%
pest or weed control at 70 g/ha [1, 7]: 0 to 29%
pest or weed control at 140 g/ha [1, 7]: 0 to 29%
pest or weed control at 35 g/ha [1, 8]: 0 to 29%
pest or weed control at 70 g/ha [1, 8]: 0 to 29%
pest or weed control at 140 g/ha [1, 8]: 0 to 29%
pest or weed control at 35 g/ha [2, 9]: 0 to 29%
pest or weed control at 70 g/ha [2, 9]: 0 to 29%
pest or weed control at 140 g/ha [2, 9]: 0 to 29%
pest or weed control at 35 g/ha [2, 10]: 0 to 29%
pest or weed control at 70 g/ha [2, 10]: 0 to 29%
pest or weed control at 140 g/ha [2, 10]: 0 to 29%
pest or weed control at 35 g/ha [2, 11]: 0 to 29%
pest or weed control at 70 g/ha [2, 11]: 0 to 29%
pest or weed control at 140 g/ha [2, 11]: 0 to 29%
pest or weed control at 35 g/ha [2, 12]: 0 to 29%
pest or weed control at 70 g/ha [2, 12]: 0 to 29%
pest or weed control at 140 g/ha [2, 12]: 0 to 29%
pest or weed control at 35 g/ha [2, 13]: 0 to 29%
pest or weed control at 70 g/ha [2, 13]: 0 to 29%
pest or weed control at 140 g/ha [2, 13]: 0 to 29%
pest or weed control at 35 g/ha [2, 14]: 0 to 29%
pest or weed control at 70 g/ha [2, 14]: 0 to 29%
pest or weed control at 140 g/ha [2, 14]: 0 to 29%
